Measured values taken from US7528252B2, “Derivatives of triazoly-imidazopyridine useful as ligands of the adenosine A2a receptor and their use as medicaments” (Sigma-Tau Industrie Farmaceutiche Riunite S.p.A., priority 2002, dated 2009).
Like-named read-outs stand apart in the source and are kept apart here.

What was measured:
BZD (central) = experiment: Receptor binding study, BZD (central); conditions: 1 μM; mean values, n = 2
DA transporter = DA transporter (Homo sapiens, UniProt Q01959); experiment: Receptor binding study, DA transporter; conditions: mean values, n = 2, read-out: percent inhibition of control specific binding
DA transporter, sequence (Q01959 whole entry, species assumed): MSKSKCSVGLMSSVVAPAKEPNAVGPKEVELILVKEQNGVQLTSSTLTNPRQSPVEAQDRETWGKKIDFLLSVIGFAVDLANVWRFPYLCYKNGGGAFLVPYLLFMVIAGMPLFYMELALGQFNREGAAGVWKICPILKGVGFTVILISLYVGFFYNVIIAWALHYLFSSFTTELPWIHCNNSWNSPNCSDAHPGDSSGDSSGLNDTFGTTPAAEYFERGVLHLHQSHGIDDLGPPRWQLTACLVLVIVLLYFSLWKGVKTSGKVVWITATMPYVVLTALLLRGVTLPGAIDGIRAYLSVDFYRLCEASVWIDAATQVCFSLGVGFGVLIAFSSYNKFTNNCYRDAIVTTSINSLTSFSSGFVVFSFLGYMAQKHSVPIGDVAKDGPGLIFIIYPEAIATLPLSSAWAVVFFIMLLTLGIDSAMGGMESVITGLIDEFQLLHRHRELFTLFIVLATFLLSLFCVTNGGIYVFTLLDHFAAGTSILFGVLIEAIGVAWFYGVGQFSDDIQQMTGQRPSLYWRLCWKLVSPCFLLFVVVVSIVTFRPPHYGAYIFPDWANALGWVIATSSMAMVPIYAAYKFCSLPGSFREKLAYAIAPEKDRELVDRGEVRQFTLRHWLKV

M3 = M3 (Homo sapiens, UniProt P20309); experiment: Receptor binding study, M3; conditions: mean values, n = 2, read-out: percent inhibition of control specific binding
ADOtransporter = experiment: Receptor binding study, ADO transporter; conditions: 1 μM; mean values, n = 2
GABAb = GABAb (Homo sapiens, UniProt Q9UBS5); experiment: Receptor binding study, GABAb; conditions: mean values, n = 2, read-out: percent inhibition of control specific binding
NE transporter = NE transporter (Homo sapiens, UniProt P23975); experiment: Receptor binding study, NE transporter; conditions: mean values, n = 2, read-out: percent inhibition of control specific binding
M4 = M4 (Homo sapiens, UniProt P08173); experiment: Receptor binding study, M4; conditions: mean values, n = 2, read-out: percent inhibition of control specific binding
PCP = experiment: Receptor binding study, PCP; conditions: 1 μM; mean values, n = 2
5-HT transporter = 5-HT transporter (Homo sapiens, UniProt P31645); experiment: Receptor binding study, 5-HT transporter; conditions: read-out: percent inhibition of control specific binding
5-HT transporter, sequence (P31645 whole entry, species assumed): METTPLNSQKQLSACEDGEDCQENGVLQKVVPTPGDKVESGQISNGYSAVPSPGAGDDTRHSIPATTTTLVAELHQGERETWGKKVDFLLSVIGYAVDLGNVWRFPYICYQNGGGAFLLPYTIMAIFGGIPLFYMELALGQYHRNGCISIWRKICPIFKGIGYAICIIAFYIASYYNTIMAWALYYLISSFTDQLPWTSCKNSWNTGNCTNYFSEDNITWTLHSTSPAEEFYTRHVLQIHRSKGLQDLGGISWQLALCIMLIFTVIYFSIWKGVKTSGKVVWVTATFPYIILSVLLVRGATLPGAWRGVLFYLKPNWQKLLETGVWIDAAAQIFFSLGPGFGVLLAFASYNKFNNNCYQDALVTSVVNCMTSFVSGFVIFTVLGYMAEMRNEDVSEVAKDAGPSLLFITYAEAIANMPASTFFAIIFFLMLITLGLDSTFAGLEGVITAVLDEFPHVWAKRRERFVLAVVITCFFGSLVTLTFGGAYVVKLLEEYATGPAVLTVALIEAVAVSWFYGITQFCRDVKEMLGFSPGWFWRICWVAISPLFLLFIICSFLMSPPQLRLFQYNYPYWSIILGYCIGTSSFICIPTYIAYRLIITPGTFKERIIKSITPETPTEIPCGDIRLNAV

α2(non-selective) = experiment: Receptor binding study, α2; conditions: 1 μM; mean values, n = 2
β2 = β2 (Homo sapiens, UniProt P07550); experiment: Receptor binding study, β2; conditions: mean values, n = 2, read-out: percent inhibition of control specific binding
Opiate (non-selective) = experiment: Receptor binding study, Opiate (non-selective); conditions: 1 μM; mean values, n = 2
5-HT1A = 5-HT1A (Homo sapiens, UniProt P08908); experiment: Receptor binding study, 5-HT1A; conditions: mean values, n = 2, read-out: percent inhibition of control specific binding
5-HT1A, sequence (P08908 whole entry, species assumed): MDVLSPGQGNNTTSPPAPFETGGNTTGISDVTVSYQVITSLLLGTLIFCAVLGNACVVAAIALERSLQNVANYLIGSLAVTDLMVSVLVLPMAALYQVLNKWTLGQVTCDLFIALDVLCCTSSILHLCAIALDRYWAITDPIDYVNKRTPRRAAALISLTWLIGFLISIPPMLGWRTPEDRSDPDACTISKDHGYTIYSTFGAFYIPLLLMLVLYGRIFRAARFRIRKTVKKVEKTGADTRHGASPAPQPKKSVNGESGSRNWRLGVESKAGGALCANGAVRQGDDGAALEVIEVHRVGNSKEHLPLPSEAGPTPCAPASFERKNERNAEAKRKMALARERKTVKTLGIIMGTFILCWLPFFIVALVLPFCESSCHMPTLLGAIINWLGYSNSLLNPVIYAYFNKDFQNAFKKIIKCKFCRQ

D4.4 (h) = D4.4 (h) (Homo sapiens, UniProt P21917); experiment: Receptor binding study, D4.4; conditions: mean values, n = 2, read-out: percent inhibition of control specific binding
D5 (h) = D5 (h) (Homo sapiens, UniProt P21918); experiment: Receptor binding study, D5; conditions: mean values, n = 2, read-out: percent inhibition of control specific binding
D5 (h), sequence (P21918 whole entry): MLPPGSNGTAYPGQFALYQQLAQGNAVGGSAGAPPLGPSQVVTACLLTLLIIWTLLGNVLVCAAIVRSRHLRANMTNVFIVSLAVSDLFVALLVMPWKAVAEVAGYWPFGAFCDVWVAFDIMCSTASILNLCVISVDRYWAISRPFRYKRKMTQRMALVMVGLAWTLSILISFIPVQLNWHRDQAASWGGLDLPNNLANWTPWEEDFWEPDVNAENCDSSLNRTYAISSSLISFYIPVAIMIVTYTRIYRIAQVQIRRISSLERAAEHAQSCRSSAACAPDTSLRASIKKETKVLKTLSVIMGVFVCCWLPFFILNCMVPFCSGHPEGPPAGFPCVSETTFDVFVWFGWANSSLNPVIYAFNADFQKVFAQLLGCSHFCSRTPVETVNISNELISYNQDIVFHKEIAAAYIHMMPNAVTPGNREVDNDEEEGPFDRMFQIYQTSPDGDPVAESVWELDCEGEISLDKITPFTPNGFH

D3 = D3 (Homo sapiens, UniProt P35462); experiment: Receptor binding study, D3; conditions: mean values, n = 2, read-out: percent inhibition of control specific binding
D3, sequence (P35462 whole entry): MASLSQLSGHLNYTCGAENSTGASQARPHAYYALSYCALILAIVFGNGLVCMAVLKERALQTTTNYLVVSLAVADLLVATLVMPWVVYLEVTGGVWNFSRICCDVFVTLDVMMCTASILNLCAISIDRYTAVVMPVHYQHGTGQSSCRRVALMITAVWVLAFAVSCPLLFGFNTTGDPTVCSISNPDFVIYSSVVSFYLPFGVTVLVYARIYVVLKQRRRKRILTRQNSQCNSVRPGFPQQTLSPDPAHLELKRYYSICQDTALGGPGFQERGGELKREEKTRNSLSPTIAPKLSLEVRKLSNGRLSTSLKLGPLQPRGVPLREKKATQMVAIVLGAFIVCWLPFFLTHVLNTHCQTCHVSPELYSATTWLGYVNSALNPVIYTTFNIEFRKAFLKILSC

M2 = M2 (Homo sapiens, UniProt P08172); experiment: Receptor binding study, M2; conditions: mean values, n = 2, read-out: percent inhibition of control specific binding
5-HT2C (h) = 5-HT2C (h) (Homo sapiens, UniProt P28335); experiment: Receptor binding study, 5-HT2C; conditions: mean values, n = 2, read-out: percent inhibition of control specific binding
5-HT2C (h), sequence (P28335 33-458): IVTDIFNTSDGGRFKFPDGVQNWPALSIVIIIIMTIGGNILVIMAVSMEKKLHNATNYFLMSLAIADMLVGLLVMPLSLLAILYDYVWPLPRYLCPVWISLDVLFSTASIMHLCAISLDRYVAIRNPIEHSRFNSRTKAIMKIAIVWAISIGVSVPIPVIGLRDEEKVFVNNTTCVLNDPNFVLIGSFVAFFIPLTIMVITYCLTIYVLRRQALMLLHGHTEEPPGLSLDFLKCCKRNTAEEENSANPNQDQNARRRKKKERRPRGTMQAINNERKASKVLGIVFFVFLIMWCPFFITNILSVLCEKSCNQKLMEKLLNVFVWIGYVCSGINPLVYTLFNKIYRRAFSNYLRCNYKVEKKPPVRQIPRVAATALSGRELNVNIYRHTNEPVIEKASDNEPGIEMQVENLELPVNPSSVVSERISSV

D2 = D2 (Homo sapiens, UniProt P14416); experiment: Receptor binding study, D2; conditions: mean values, n = 2, read-out: percent inhibition of control specific binding
M1 = M1 (Homo sapiens, UniProt P11229); experiment: Receptor binding study, M1; conditions: mean values, n = 2, read-out: percent inhibition of control specific binding
M1, sequence (P11229 whole entry): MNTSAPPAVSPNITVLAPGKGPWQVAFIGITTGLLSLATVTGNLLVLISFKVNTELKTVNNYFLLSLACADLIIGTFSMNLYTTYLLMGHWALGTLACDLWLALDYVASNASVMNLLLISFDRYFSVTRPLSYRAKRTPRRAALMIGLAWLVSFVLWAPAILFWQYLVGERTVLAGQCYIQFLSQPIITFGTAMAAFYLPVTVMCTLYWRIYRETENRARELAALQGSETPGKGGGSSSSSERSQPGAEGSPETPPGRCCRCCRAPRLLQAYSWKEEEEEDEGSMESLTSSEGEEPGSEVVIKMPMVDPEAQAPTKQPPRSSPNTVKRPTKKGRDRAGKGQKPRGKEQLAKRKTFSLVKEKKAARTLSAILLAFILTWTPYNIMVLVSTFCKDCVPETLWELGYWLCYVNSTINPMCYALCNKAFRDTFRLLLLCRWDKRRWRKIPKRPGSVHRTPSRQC

human A2b receptor = target: T1, human A2b receptor (Homo sapiens, UniProt P29275); experiment: Affinity towards the adenosine A2b receptor ([3H]-DPCPX binding, HEK 293 membranes); conditions: read-out: A2b Ki (nM) ± sd
T1 construct: expressed in transfected cells; host or cells: HEK 293
T1 sequence (P29275 1-332): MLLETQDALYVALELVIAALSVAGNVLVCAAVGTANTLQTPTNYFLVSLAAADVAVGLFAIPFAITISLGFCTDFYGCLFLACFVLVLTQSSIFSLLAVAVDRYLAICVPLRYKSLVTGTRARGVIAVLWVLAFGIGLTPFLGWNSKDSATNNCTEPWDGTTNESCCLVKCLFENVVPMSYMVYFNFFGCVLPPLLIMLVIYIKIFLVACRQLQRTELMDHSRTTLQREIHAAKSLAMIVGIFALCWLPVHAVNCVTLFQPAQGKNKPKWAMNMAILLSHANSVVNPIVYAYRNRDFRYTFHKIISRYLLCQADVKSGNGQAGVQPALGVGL
Experimental: The interactive capacity of each product towards the adenosine A2b receptor was evaluated using membranes from HEK 293 cells stably expressing the human A2b receptor subtype exclusively.
Non-specific binding was measured in the presence of NECA (50 μM).
In binding studies for each compound, eight different concentrations (from 10^−5 M to 10^−12 M) were evaluated in order to obtain competition curves. By means of non-linear regression analysis of the competition curves, the IC50 values, which express the binding affinity of each product, were determined. Using the Cheng Prusoff equation (Ki=IC50/1+(L/Kd)) Ki values were calculated through which the affinity of each product studied, for the receptor investigated, is expressed.

P2X = experiment: Receptor binding study, P2X; conditions: 1 μM; mean values, n = 2
P2Y = experiment: Receptor binding study, P2Y; conditions: 1 μM; mean values, n = 2
Cholinetransporter = target: T2, Cholinetransporter (Homo sapiens, UniProt Q9GZV3); experiment: Receptor binding study, Choline transporter; conditions: 1 μM; mean values, n = 2; read-out: percent inhibition of control specific binding
T2 sequence (Q9GZV3 1-580): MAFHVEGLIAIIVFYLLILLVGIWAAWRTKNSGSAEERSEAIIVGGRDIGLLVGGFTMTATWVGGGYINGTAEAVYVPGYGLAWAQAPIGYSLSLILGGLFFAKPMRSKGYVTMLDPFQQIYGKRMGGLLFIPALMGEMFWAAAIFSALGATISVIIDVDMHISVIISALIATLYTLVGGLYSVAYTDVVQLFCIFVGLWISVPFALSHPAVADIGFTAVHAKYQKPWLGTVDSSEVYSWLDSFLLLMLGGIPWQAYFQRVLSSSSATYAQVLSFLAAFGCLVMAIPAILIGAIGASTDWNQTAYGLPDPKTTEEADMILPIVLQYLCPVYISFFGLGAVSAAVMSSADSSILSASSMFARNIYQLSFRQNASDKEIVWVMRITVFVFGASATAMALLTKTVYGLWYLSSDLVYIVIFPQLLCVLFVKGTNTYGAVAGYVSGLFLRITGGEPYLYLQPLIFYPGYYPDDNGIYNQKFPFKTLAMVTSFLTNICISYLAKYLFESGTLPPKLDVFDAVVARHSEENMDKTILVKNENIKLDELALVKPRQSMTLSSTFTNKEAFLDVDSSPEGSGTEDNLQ

GABAtransporter = experiment: Receptor binding study, GABA transporter; conditions: 1 μM; mean values, n = 2
H1 (central) = H1 (central) (Cavia porcellus, UniProt P31389); experiment: Receptor binding study, H1 (central); conditions: mean values, n = 2, read-out: percent inhibition of control specific binding
H1 (central), sequence (P31389 whole entry): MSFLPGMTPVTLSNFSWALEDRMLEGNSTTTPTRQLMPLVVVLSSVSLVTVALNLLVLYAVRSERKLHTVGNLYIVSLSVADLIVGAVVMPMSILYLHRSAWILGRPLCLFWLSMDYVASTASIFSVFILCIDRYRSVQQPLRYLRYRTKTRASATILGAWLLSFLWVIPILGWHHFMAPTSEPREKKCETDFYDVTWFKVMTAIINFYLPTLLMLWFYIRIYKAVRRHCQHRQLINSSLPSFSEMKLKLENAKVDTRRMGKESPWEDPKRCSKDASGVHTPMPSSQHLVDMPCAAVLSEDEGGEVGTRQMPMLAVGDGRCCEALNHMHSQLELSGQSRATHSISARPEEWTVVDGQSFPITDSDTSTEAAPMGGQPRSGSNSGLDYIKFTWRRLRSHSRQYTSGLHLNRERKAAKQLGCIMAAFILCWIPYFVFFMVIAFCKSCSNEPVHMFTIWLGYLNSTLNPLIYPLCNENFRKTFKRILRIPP

[1] = target: T3, human A3 subtype adenosine receptor (Homo sapiens, UniProt P0DMS8); experiment: Affinity towards the adenosine A3 receptor ([125I]AB-MECA binding, HEK-293 membranes); conditions: test compounds; read-out: A3 (h) Ki
T3 construct: expressed in transfected cells; host or cells: HEK-293
T3 sequence (P0DMS8 whole entry): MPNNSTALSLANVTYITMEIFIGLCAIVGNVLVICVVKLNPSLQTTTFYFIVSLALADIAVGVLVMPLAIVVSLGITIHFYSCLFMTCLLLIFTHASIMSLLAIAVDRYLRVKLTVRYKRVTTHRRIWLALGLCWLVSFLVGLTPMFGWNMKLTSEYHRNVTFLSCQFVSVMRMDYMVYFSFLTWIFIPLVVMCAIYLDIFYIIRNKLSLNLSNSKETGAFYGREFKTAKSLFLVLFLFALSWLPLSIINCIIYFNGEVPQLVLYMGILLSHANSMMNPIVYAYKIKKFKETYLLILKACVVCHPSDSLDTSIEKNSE

5-HT3 (h) = 5-HT3 (h) (Homo sapiens, UniProt P46098); experiment: Receptor binding study, 5-HT3; conditions: mean values, n = 2, read-out: percent inhibition of control specific binding
5-HT3 (h), sequence (P46098 24-478): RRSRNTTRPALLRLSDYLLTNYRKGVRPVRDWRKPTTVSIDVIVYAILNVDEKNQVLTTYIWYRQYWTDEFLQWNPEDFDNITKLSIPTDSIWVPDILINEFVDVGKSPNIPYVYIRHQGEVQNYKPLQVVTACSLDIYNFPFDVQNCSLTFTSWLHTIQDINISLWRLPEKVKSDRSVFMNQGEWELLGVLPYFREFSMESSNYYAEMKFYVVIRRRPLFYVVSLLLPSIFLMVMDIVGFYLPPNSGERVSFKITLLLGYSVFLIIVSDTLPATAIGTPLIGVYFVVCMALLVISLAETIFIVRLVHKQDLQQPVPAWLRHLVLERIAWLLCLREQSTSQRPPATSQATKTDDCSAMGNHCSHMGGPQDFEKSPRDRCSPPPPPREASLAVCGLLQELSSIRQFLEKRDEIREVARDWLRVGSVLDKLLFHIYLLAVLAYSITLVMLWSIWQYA

SMILES	percent inhibition of control specific binding (BZD (central))	inhibition at 1 µM (DA transporter)	inhibition at 1 µM (M3)	percent inhibition of control specific binding (ADOtransporter)	inhibition at 1 µM (GABAb)	inhibition at 1 µM (NE transporter)	inhibition at 1 µM (M4)	percent inhibition of control specific binding (PCP)	percent inhibition of control specific binding (α2(non-selective))	inhibition at 1 µM (β2)	percent inhibition of control specific binding (Opiate (non-selective))	inhibition at 1 µM (5-HT1A)	inhibition at 1 µM (D4.4 (h))	inhibition at 1 µM (D5 (h))	inhibition at 1 µM (D3)	inhibition at 1 µM (M2)	inhibition at 1 µM (5-HT2C (h))	inhibition at 1 µM (D2)	inhibition at 1 µM (M1)	Ki (human A2b receptor)	other results
CCCCc1nc(N)c2nc(-n3nccn3)n(C)c2n1 [ST 1535, 2-butyl-9-methyl-8-(2H-1,2,3-triazol-2-yl)-9H-purine-6-ylamine]	— (The symbol — indicates an inhibition of less than 10%.)	< 10%	< 10%	24%	< 10%	< 10%	< 10%	— (The symbol — indicates an inhibition of less than 10%.)	— (The symbol — indicates an inhibition of less than 10%.)	< 10%	— (The symbol — indicates an inhibition of less than 10%.)	< 10%	< 10%	< 10%	< 10%	< 10%	< 10%	< 10%	< 10%	627 ± 45 nM	inhibition at 1 µM (5-HT transporter; 1 μM, mean values, n = 2, class symbol): < 10%; percent inhibition of control specific binding (P2X): — (The symbol — indicates an inhibition of less than 10%.); percent inhibition of control specific binding (P2Y): — (The symbol — indicates an inhibition of less than 10%.); inhibition at 1 µM (Cholinetransporter): < 10%; percent inhibition of control specific binding (GABAtransporter): — (The symbol — indicates an inhibition of less than 10%.); inhibition at 1 µM (H1 (central)): < 10%; Ki [1]: 1580 nM; inhibition at 1 µM (5-HT3 (h)): < 10%
CCCCCc1nc(N)c2nc(-n3nccn3)n(C)c2n1 [ST 2097, 9-methyl-2-pentyl-8-(2H-1,2,3-triazol-2-yl)-9H-purine-6-ylamine]	— (The symbol — indicates an inhibition of less than 10%.)	< 10%	< 10%	34%	< 10%	< 10%	< 10%	— (The symbol — indicates an inhibition of less than 10%.)	— (The symbol — indicates an inhibition of less than 10%.)	< 10%	— (The symbol — indicates an inhibition of less than 10%.)	< 10%	< 10%	< 10%	< 10%	< 10%	< 10%	< 10%	< 10%	153 ± 13 nM	inhibition at 1 µM (5-HT transporter): 13%; percent inhibition of control specific binding (P2X): — (The symbol — indicates an inhibition of less than 10%.); percent inhibition of control specific binding (P2Y): — (The symbol — indicates an inhibition of less than 10%.); inhibition at 1 µM (Cholinetransporter): < 10%; percent inhibition of control specific binding (GABAtransporter): — (The symbol — indicates an inhibition of less than 10%.); inhibition at 1 µM (H1 (central)): < 10%; Ki [1]: 519 nM; inhibition at 1 µM (5-HT3 (h)): < 10%
